In patent publication US20230099344A1, “COMPOUNDS AND METHODS FOR THE TARGETED DEGRADATION OF IRAK-4” (Arvinas Operations, Inc., priority 2021, published 2023):

biological target: T1, IRAK-4 (Homo sapiens, UniProt Q9NWZ3); assay: IRAK-4 ELISA, PBMC degradation; format: cell-based; set-up: endogenous in cells; host or cells: PBMC; details: treated overnight
T1 sequence (Q9NWZ3 1-460): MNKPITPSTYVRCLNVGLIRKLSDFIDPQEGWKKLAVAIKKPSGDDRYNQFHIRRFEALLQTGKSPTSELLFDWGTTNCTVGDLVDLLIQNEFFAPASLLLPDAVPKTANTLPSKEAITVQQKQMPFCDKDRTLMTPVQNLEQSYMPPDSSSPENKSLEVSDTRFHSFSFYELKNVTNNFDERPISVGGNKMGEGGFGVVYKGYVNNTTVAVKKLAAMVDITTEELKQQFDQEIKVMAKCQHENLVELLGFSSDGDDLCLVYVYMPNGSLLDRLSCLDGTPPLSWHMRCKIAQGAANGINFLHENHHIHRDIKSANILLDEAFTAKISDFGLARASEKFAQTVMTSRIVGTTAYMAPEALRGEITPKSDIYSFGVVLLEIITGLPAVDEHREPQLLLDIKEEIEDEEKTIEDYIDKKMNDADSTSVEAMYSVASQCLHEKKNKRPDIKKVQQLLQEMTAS
Description: Reagents: Human IRAK-4 Matched Antibody Pair Kit (Abcam ab218182) and ELISA Accessory Pack (Abcam ab210905).
Cell Treatment and Lysis:
1. OCI-Ly10: 200,000 cells are seeded at 1×10^6/ml in 96-well U-bottom plates 200 ul per well, treated with compound the same day. Incubate overnight. 2. PBMC: 800,000 cells are seeded at 2×10^6/ml in 96-well U-bottom deep-well plates, 400 ul per well, treated with compound the same day. Incubate overnight.
Cell lysate is collected and analyzed by ELISA for IRAK-4 levels.

Structure (SMILES) | DC50 | Dmax | PBMC DC90 | PBMC Dmax
CC(C)Oc1cc2c(cc1NC(=O)c1cnn3cccnc13)CN(C1CCN(CCOCCOc3ccc4c(c3)CN(C3CCC(=O)NC3=O)C4=O)CC1)C2=O (stereo not drawn) [Example 2] | < 1 nM | ≥ 90% | 2 nM | 
COc1cc(CCN2CCC(N3Cc4cc(NC(=O)c5cnn6cccnc56)c(OC(C)C)cc4C3=O)CC2)cc2c1C(=O)N(C1CCC(=O)NC1=O)C2 (stereo not drawn) [Example 11] | 1 to 5 nM | ≥ 90% | C (C represents a DC90 value ≥25.0 nM and <50 nM) | 
COc1cc(N2CC(CN3CCC(N4Cc5cc(NC(=O)c6cnn7cccnc67)c(OC(C)C)cc5C4=O)CC3)C2)cc2c1C(=O)N(C1CCC(=O)NC1=O)C2=O (stereo not drawn) [Example 14] | < 1 nM | ≥ 90% | A (A represents a DC90 value <10.0 nM) | 
CC(C)Oc1cc2c(cc1NC(=O)c1cnn3cccnc13)CN(C1CCN(CCC3(F)CN(c4ccc5c(c4)C(=O)N(C4CCC(=O)NC4=O)C5=O)C3)CC1)C2=O (stereo not drawn) [Example 15] | < 1 nM | 80 to 90% | A (A represents a DC90 value <10.0 nM) | 
CC(C)Oc1cc2c(cc1NC(=O)c1cnn3cccnc13)CN(C[C@@H](F)C1CN(CC3CCN(c4ccc5c(c4)CN(C4CCC(=O)NC4=O)C5=O)CC3)C1)C2=O (stereo partly drawn) [Example 17] | < 1 nM | 80 to 90% | A (A represents a DC90 value <10.0 nM) | 
CC(C)Oc1cc2c(cc1NC(=O)c1cnn3cccnc13)CN(C1CCC(N3CCC(c4ccc5c(c4)C(=O)N(C4CCC(=O)NC4=O)C5=O)CC3)CC1)C2=O (stereo not drawn) [Example 25] | 1 to 5 nM | ≥ 90% | A (A represents a DC90 value <10.0 nM) | 
O=C1CCC(N2Cc3cc(N4CC(N5CCC(N6Cc7cc(NC(=O)c8cnn9cccnc89)c(N8CCC(N9CCC9)CC8)cc7C6=O)CC5)C4)ccc3C2=O)C(=O)N1 (stereo not drawn) [Example 39] | 5 to 10 nM | ≥ 90% | C (C represents a DC90 value ≥25.0 nM and <50 nM) | 
CC(C)Oc1cc2c(cc1NC(=O)c1cnn3cccnc13)CN(C1CCN(CC(F)(F)C3CN(c4ccc5c(c4)C(=O)N(C4CCC(=O)NC4=O)C5=O)C3)CC1)C2=O (stereo not drawn) [Example 40] | 5 to 10 nM | 80 to 90% | D (D represents a DC90 value ≥50 nM) | 
CC(C)Oc1cc2c(cc1NC(=O)c1cnn3cccnc13)CN(C1CCN(CC3(O)CN(c4ccc5c(c4)C(=O)N(C4CCC(=O)NC4=O)C5=O)C3)CC1)C2=O (stereo not drawn) [Example 61] | < 1 nM | ≥ 90% | A (A represents a DC90 value <10.0 nM) | 
CC(C)Oc1cc2c(cc1NC(=O)c1cnn3cccnc13)CN([C@H]1CC[C@H](N3CC4(CN(c5ccc6c(c5)C(=O)N(C5CCC(=O)NC5=O)C6=O)C4)C3)CC1)C2=O (stereo partly drawn) [Example 68] | < 1 nM |  | A (A represents a DC90 value <10.0 nM) | A (A represents a Dmax value ≥90)
CC(C)Oc1cc2c(cc1NC(=O)c1cnn3cccnc13)CN(C[C@@H](F)C1CCN(CC3CN(c4ccc5c(c4)C(=O)N(C4CCC(=O)NC4=O)C5=O)C3)CC1)C2=O (stereo partly drawn) [Example 70] | < 1 nM | ≥ 90% | A (A represents a DC90 value <10.0 nM) | 
CC(C)Oc1cc2c(cc1NC(=O)c1cnn3cccnc13)CN(C1CCN(C(=O)C3CN(c4ccc5c(c4)C(=O)N(C4CCC(=O)NC4=O)C5=O)C3)CC1)C2=O (stereo not drawn) [Example 71] | 1 to 5 nM | ≥ 90% | B (B represents a DC90 value ≥10.0 nM and <25.0 nM) | 
CC(C)Oc1cc2c(cc1NC(=O)c1cnn3cccnc13)CN(C1CCN(CC3(C)CN(c4ccc5c(c4)C(=O)N(C4CCC(=O)NC4=O)C5=O)C3)CC1)C2=O (stereo not drawn) [Example 72] | < 1 nM | 80 to 90% | A (A represents a DC90 value <10.0 nM) | 
CC(C)Oc1cc2c(cc1NC(=O)c1cnn3ccc(N4CCOCC4)nc13)CN(C1CCN(CC3CN(c4ccc5c(c4)C(=O)N(C4CCC(=O)NC4=O)C5=O)C3)CC1)C2=O (stereo not drawn) [Example 73] | 5 to 10 nM | 70 to 80% | D (D represents a DC90 value ≥50 nM) | 
CC(C)Oc1cc2c(cc1NC(=O)c1cnn3ccc(N4CCOCC4)nc13)CN(C1CCN(CC3CCN(c4ccc5c(c4)C(=O)N(C4CCC(=O)NC4=O)C5=O)CC3)CC1)C2=O (stereo not drawn) [Example 74] | 5 to 10 nM | 80 to 90% | D (D represents a DC90 value ≥50 nM) | 
CC(C)Oc1cc2c(cc1NC(=O)c1cnn3cccnc13)CN(C1CCN(CCN(C)c3ccc4c(c3)C(=O)N(C3CCC(=O)NC3=O)C4=O)CC1)C2=O (stereo not drawn) [Example 75] | 1 to 5 nM | ≥ 90% | B (B represents a DC90 value ≥10.0 nM and <25.0 nM) | 
CC(C)Oc1cc2c(cc1NC(=O)c1cnn3cccnc13)CN(C1CCN(C[C@H]3CCCN(c4ccc5c(c4)C(=O)N(C4CCC(=O)NC4=O)C5=O)C3)CC1)C2=O (stereo partly drawn) [Example 76] | 1 to 5 nM | ≥ 90% | B (B represents a DC90 value ≥10.0 nM and <25.0 nM) | 
CC(C)Oc1cc2c(cc1NC(=O)c1cnn3cccnc13)CN(C1CCN(C[C@@H]3CCCN(c4ccc5c(c4)C(=O)N(C4CCC(=O)NC4=O)C5=O)C3)CC1)C2=O (stereo partly drawn) [Example 77] | 1 to 5 nM | ≥ 90% | B (B represents a DC90 value ≥10.0 nM and <25.0 nM) | 

Continued, values first:

DC50 | Dmax | PBMC DC90 | PBMC Dmax | Structure (SMILES)
≥ 10 nM | 80 to 90% | 3 nM |  | CC(C)Oc1cc2c(cc1NC(=O)c1cnn3cccnc13)CN(C1CCN(CCOc3ccc4c(c3)CN(C3CCC(=O)NC3=O)C4=O)CC1)C2=O (stereo not drawn) [Example 3]
< 1 nM | ≥ 90% | A (A represents a DC90 value <10.0 nM) |  | CC(C)Oc1cc2c(cc1NC(=O)c1cnn3cccnc13)CN(C[C@@H](F)C1CCN(CC3CN(c4ccc5c(c4)CN(C4CCC(=O)NC4=O)C5=O)C3)CC1)C2=O (stereo partly drawn) [Example 16]
< 1 nM | ≥ 90% | A (A represents a DC90 value <10.0 nM) |  | CC(C)Oc1cc2c(cc1NC(=O)c1cnn3cccnc13)CN(C[C@@H](F)C1CCN(CC3CCN(c4ccc5c(c4)C(=O)N(C4CCC(=O)NC4=O)C5=O)CC3)CC1)C2=O (stereo partly drawn) [Example 18]
< 1 nM | ≥ 90% | A (A represents a DC90 value <10.0 nM) |  | CC(C)Oc1cc2c(cc1NC(=O)c1cnn3cccnc13)CN(C[C@@H](F)C1CCN(CC3CCN(c4ccc5c(c4)CN(C4CCC(=O)NC4=O)C5=O)CC3)CC1)C2=O (stereo partly drawn) [Example 20]
< 1 nM | ≥ 90% | A (A represents a DC90 value <10.0 nM) |  | COc1cc(N2CC(CN3CCC(N4Cc5cc(NC(=O)c6cnn7cccnc67)c(OC(C)C)cc5C4=O)CC3)C2)cc2c1C(=O)N(C1CCC(=O)NC1=O)C2 (stereo not drawn) [Example 21]
< 1 nM | ≥ 90% | A (A represents a DC90 value <10.0 nM) |  | O=C1CCC(N2C(=O)c3ccc(N4CCC(CN5CCC(N6Cc7cc(NC(=O)c8cnn9cccnc89)c(OC8CC8)cc7C6=O)CC5)CC4)cc3C2=O)C(=O)N1 (stereo not drawn) [Example 27]
< 1 nM | ≥ 90% | A (A represents a DC90 value <10.0 nM) |  | O=C1CCC(N2Cc3cc(N4CCC(CN5CCC(N6Cc7cc(NC(=O)c8cnn9cccnc89)c(OC8CC8)cc7C6=O)CC5)CC4)ccc3C2=O)C(=O)N1 (stereo not drawn) [Example 28]
1 to 5 nM | ≥ 90% | A (A represents a DC90 value <10.0 nM) |  | CC(C)Oc1cc2c(cc1NC(=O)c1cnn3cccnc13)CN([C@H]1CC[C@H](OC3CCN(c4ccc5c(c4)C(=O)N(C4CCC(=O)NC4=O)C5=O)CC3)CC1)C2=O (stereo partly drawn) [Example 65]
< 1 nM | ≥ 90% | A (A represents a DC90 value <10.0 nM) |  | CC(C)Oc1cc2c(cc1NC(=O)c1cnn3cccnc13)CN(C1CCN(C[C@@H]3CN(c4ccc5c(c4)C(=O)N(C4CCC(=O)NC4=O)C5=O)CCO3)CC1)C2=O (stereo partly drawn) [Example 78]
< 1 nM | ≥ 90% | A (A represents a DC90 value <10.0 nM) |  | CC(C)Oc1cc2c(cc1NC(=O)c1cnn3cccnc13)CN(C1CCN(C[C@H]3CN(c4ccc5c(c4)C(=O)N(C4CCC(=O)NC4=O)C5=O)CCO3)CC1)C2=O (stereo partly drawn) [Example 79]
1 to 5 nM | ≥ 90% | A (A represents a DC90 value <10.0 nM) |  | CC(C)Oc1cc2c(cc1NC(=O)c1cnn3cccnc13)CN(C1CCN(C[C@@H]3CCN(c4ccc5c(c4)C(=O)N(C4CCC(=O)NC4=O)C5=O)C3)CC1)C2=O (stereo partly drawn) [Example 80]
< 1 nM | ≥ 90% | A (A represents a DC90 value <10.0 nM) |  | CC(C)Oc1cc2c(cc1NC(=O)c1cnn3cccnc13)CN(C1CCN(CC3CCC4(CC3)CN(c3ccc5c(c3)C(=O)N(C3CCC(=O)NC3=O)C5=O)C4)CC1)C2=O (stereo not drawn) [Example 81]
1 to 5 nM | ≥ 90% | A (A represents a DC90 value <10.0 nM) |  | CC(C)Oc1cc2c(cc1NC(=O)c1cnn3cccnc13)CN(C1CCN(C[C@H]3CCN(c4ccc5c(c4)C(=O)N(C4CCC(=O)NC4=O)C5=O)C3)CC1)C2=O (stereo partly drawn) [Example 83]
< 1 nM | ≥ 90% | A (A represents a DC90 value <10.0 nM) |  | O=C1CCC(N2C(=O)c3ccc(N4CC(CN5CCC(N6Cc7cc(NC(=O)c8cnn9cccnc89)c(OC8CC8)cc7C6=O)CC5)C4)cc3C2=O)C(=O)N1 (stereo not drawn) [Example 84]
